Measured values published in ChEMBL document CHEMBL1131315, “Synthesis and anticonvulsant activity of 2(3H)-benzoxazolone and 2(3H)-benzothiazolone derivatives” (J Med Chem, 1998).
pKi: −log10 of the molar value. Active and inactive are the calls of the source. The rule behind the calls is not given here.

Key:
[1] = The compound was tested for neurologic toxicity (rotarod) test for 4 hr in mice; no activity or toxicity at 300 mg/kg; type: organism-based; design: dose 300 mg/kg; conditions: mouse, in vivo
[2] = The compound was tested for neurologic toxicity (rotarod) test for 30 min in mice; activity at 100 mg/kg; type: organism-based; design: dose 100 mg/kg; conditions: mouse, in vivo, 0.5 h
[3] = system: Mus musculus; experiment: The compound was tested for anticonvulsant activity in subcutaneous pentylenetetrazole seizure test (sc Met) for 30 min in mice; activity at 300 mg/kg; type: functional, organism-based; design: dose 300 mg/kg
[4] = system: Mus musculus; experiment: The compound was tested for anticonvulsant activity in subcutaneous pentylenetetrazole seizure test (sc Met) for 4 hr in mice; activity at 300 mg/kg; type: functional, organism-based; design: dose 300 mg/kg
[5] = system: Mus musculus; experiment: Anticonvulsant activity in Maximal electroshock seizure test at 100 mg/kg i.p. in mice.; type: functional, organism-based; design: dose 100 mg/kg
[6] = system: Mus musculus; experiment: The compound was tested for anticonvulsant activity in Maximal electroshock seizure test for 4 hr in mice(ip); active at 300 mg/kg; type: functional, organism-based; design: dose 300 mg/kg
[7] = The compound was tested for time of peak effect (TPE) in hours for its toxicity in mice on ip administration.; type: organism-based; conditions: mouse, in vivo
[8] = system: Rattus norvegicus; experiment: The compound was tested per os dose of 25 mg/kg for 0.5 hours for maximal electroshock test on rats; MES= 2/4; type: functional
[9] = system: Mus musculus; experiment: Time of peak effect in mice following i.p. administration.; type: functional
[10] = system: Mus musculus; experiment: The compound was tested for anticonvulsant activity in Maximal electroshock seizure test (MES) for 4 hr in mice(ip); active at 100 mg/kg; type: functional, organism-based; design: dose 100 mg/kg
[11] = system: Rattus norvegicus; experiment: The compound was tested for the effective oral dose to inhibit 50% of the anticonvulsant in rats.(Value in parenthesis indicate 95% confidence limits).; type: functional
[12] = system: Mus musculus; experiment: The compound was tested for anticonvulsant activity in subcutaneous pentylenetetrazole seizure test (sc Met) for 30 min in mice; active at 100 mg/kg; type: functional, organism-based; design: dose 100 mg/kg
[13] = system: Rattus norvegicus; experiment: The compound was tested per os dose of 25 mg/kg for 1 hour for rotarod toxicity; 0/4; type: functional
[14] = The compound was tested for neurologic toxicity (rotarod) test for 30 min in mice; active at 30 mg/kg; type: organism-based; design: dose 30 mg/kg; conditions: mouse, in vivo, 0.5 h
[15] = system: Mus musculus; experiment: The compound was tested for anticonvulsant activity in subcutaneous pentylenetetrazole seizure test (sc Met) for 4 hr in mice; active at 300 mg/kg; type: functional, organism-based; design: dose 300 mg/kg
[16] = system: Rattus norvegicus; experiment: The compound was tested per os dose of 25 mg/kg for 2 hours for maximal electroshock test on rats; MES= 3/4; type: functional
[17] = system: Rattus norvegicus; experiment: The compound was tested per os dose of 25 mg/kg for 0.25 hours for maximal electroshock test on rats; MES= 2/4; type: functional
[18] = system: Mus musculus; experiment: The compound was tested for anticonvulsant activity in Maximal electroshock seizure test for 30 min in mice(ip); active at 30 mg/kg; type: functional, organism-based; design: dose 30 mg/kg
[19] = The compound was tested for neurologic toxicity (rotarod) test for 4 hours in mice; active at 30 mg/kg; type: organism-based; design: dose 30 mg/kg; conditions: mouse, in vivo
[20] = (§1) Protective index value is the ratio between ED50 and TD50; type: functional
[21] = system: Rattus norvegicus; experiment: The compound was tested per os dose of 25 mg/kg for 4 hours for rotarod toxicity; 0/4; type: functional
[22] = system: Rattus norvegicus; experiment: The compound was tested per os dose of 25 mg/kg for 1 hour for maximal electroshock test on rats; MES= 4/4; type: functional
[23] = system: Rattus norvegicus; experiment: The compound was tested per os dose of 25 mg/kg for 4 hours for maximal electroshock test on rats; MES= 2/4; type: functional
[24] = (§2) The compound was determined for the dose (mg/kg) by rotarod test at the time of peak neurotoxic effect in mice on ip administration.; type: ADME, organism-based; conditions: mouse, in vivo
[25] = system: Rattus norvegicus; experiment: The compound was tested per os dose of 25 mg/kg for 0.25 hours for rotarod toxicity; 0/4; type: functional
[26] = system: Rattus norvegicus; experiment: The compound was tested per os dose of 25 mg/kg for 2 hours for rotarod toxicity; 0/4; type: functional
[27] = The compound was tested for the toxic dose on oral administration. (Value in parenthesis indicate 95% confidence limits).; type: ADME; conditions: rat
[28] = system: Rattus norvegicus; experiment: The compound was tested per os dose of 25 mg/kg for 0.5 hours for rotarod toxicity; 0/4; type: functional
[29] = system: Mus musculus; experiment: The compound was tested to inhibit 50% of induced maximal electroshock seizure in mice on ip administration.; type: functional
[30] = system: Mus musculus; experiment: Inhibition of s.c. pentylenetetrazole induced seizure in mice following i.p. administration.; type: functional
[31] = system: Mus musculus; experiment: as §2; type: functional
[32] = system: Rattus norvegicus; experiment: The compound was tested peroral dose of 30 mg/kg for 1 hour for rotarod toxicity; 0/4; type: functional; conditions: route oral
[33] = target: Sigma 2 receptor; experiment: Affinity on sigma 2 receptor using [3H]- DTG as radioligand
[34] = system: Rattus norvegicus; experiment: The compound was tested peroral dose of 30 mg/kg for 1 hour for maximal electroshock test on rats; MES= 1/4; type: functional; conditions: route oral
[35] = system: Rattus norvegicus; experiment: The compound was tested peroral dose of 30 mg/kg for 0.25 hours for rotarod toxicity; 0/4; type: functional; conditions: route oral
[36] = system: Rattus norvegicus; experiment: The compound was tested for the toxic dose on oral administration.; type: functional
[37] = system: Rattus norvegicus; experiment: The compound was tested peroral dose of 30 mg/kg for 2 hours for rotarod toxicity; 0/4; type: functional; conditions: route oral
[38] = The compound was tested for neurologic toxicity (rotarod) test for 4 hours in mice; no activity or no toxicity at 300 mg/kg; type: organism-based; design: dose 300 mg/kg; conditions: mouse, in vivo
[39] = system: Rattus norvegicus; experiment: The compound was tested for the effective oral dose to inhibit 50% of the anticonvulsant in rats.(Value in parenthesis indicate 95% confidence limits); type: functional
[40] = system: Rattus norvegicus; experiment: The compound was tested peroral dose of 30 mg/kg for 0.5 hours for maximal electroshock test on rats; MES= 3/4; type: functional; conditions: route oral
[41] = system: Mus musculus; experiment: Anticonvulsant activity in subcutaneous pentylenetetrazole seizure test for 30 min in mice; No activity/toxicity at 300 mg/kg.; type: functional, organism-based; design: dose 300 mg/kg
[42] = target: Sigma non-opioid intracellular receptor 1 (Homo sapiens) (UniProt Q99720); experiment: Ratio between the Ki(nM)values of sigma-2 and sigma-1; type: functional
Sequence of Sigma non-opioid intracellular receptor 1 (Homo sapiens) (Q99720 whole entry): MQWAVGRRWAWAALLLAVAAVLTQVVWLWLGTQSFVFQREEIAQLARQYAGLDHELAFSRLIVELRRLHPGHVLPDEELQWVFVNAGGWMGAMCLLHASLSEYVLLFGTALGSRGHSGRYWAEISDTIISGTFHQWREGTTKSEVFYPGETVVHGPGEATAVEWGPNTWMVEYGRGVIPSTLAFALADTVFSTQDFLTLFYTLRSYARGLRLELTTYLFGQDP

[43] = system: Mus musculus; experiment: The compound was tested for anticonvulsant activity in Maximal electroshock seizure test (MES) for 4 hr in mice(ip); no activity or toxicity at 300 mg/kg; type: functional, organism-based; design: dose 300 mg/kg
[44] = system: Rattus norvegicus; experiment: The compound was tested peroral dose of 30 mg/kg for 0.5 hours for rotarod toxicity; 0/4; type: functional; conditions: route oral
[45] = system: Rattus norvegicus; experiment: The compound was tested peroral dose of 30 mg/kg for 2 hours for maximal electroshock test on rats; MES= 0/4; type: functional; conditions: route oral
[46] = species: Rattus norvegicus; experiment: as §1; type: functional
[47] = system: Rattus norvegicus; experiment: The compound was tested peroral dose of 30 mg/kg for 4 hours for maximal electroshock test on rats; MES= 1/4; type: functional; conditions: route oral
[48] = The compound was tested for neurologic toxicity (rotarod) test for 30 min in mice; active at 300 mg/kg; type: organism-based; design: dose 300 mg/kg; conditions: mouse, in vivo, 0.5 h
[49] = system: Rattus norvegicus; experiment: The compound was tested peroral dose of 30 mg/kg for 0.25 hours for maximal electroshock test on rats; MES= 3/4; type: functional; conditions: route oral
[50] = system: Rattus norvegicus; experiment: The compound was tested peroral dose of 30 mg/kg for 4 hours for rotarod toxicity; 0/4; type: functional; conditions: route oral
[51] = system: Mus musculus; experiment: The anticonvulsant activity in subcutaneous pentylenetetrazole seizure test (sc Met) for 4 hr in mice; no activity or no toxicity at 300 mg/kg; type: functional, organism-based; design: dose 300 mg/kg

SMILES: CCCCC(=O)c1ccc2c(c1)sc(=O)n2C(C)=O
- Rotarod toxicity [1]: activity at 100 mg/kg
- Rotarod toxicity [2]: activity at 100 mg/kg
- scMet [3]: activity at 300 mg/kg
- scMet [4]: activity at 300 mg/kg
- MES [5]: active at 300 mg/kg
- MES [6]: active at 300 mg/kg

SMILES: Cn1c(=O)sc2ccccc21
- Toxicity [7]: 0.25 h
- Protected/Tested [8]: 2
- Activity [9]: 0.25 h
- MES [10]: active at 100 mg/kg
- ED50 [11]: 16.2 mg/kg
- scMet [12]: active at 100 mg/kg
- No. of animals exhibiting toxicity / Number of animals tested [13]: 0
- Rotarod toxicity [14]: active at 30 mg/kg
- scMet [15]: active at 100 mg/kg
- Protected/Tested [16]: 3
- Protected/Tested [17]: 2
- MES [18]: active at 100 mg/kg
- Rotarod toxicity [19]: active at 30 mg/kg
- PI [20]: 8.6
- No. of animals exhibiting toxicity / Number of animals tested [21]: 0
- Protected/Tested [22]: 4
- Protected/Tested [23]: 2
- TD50 [24]: 55.2 mg/kg
- No. of animals exhibiting toxicity / Number of animals tested [25]: 0
- No. of animals exhibiting toxicity / Number of animals tested [26]: 0
- TD50 [27]: 140 mg/kg
- No. of animals exhibiting toxicity / Number of animals tested [28]: 0
- ED50 [29]: 24.2 mg/kg
- ED50 [30]: > 100 mg/kg

SMILES: CCCc1ccc2c(c1)sc(=O)n2CCN1CCCCC1
- TD50 [31]: 29.4 mg/kg
- Toxicity [7]: 0.25 h
- Activity [9]: 0.25 h
- No. of animals exhibiting toxicity / Number of animals tested [32]: 0
- pKi [33]: 7.74
- Protected/Tested [34]: 1
- No. of animals exhibiting toxicity / Number of animals tested [35]: 0
- MES [18]: active at 30 mg/kg
- TD50 [36]: < 500 mg/kg
- No. of animals exhibiting toxicity / Number of animals tested [37]: 0
- Rotarod toxicity [38]: active at 300 mg/kg
- ED50 [39]: 18.6 mg/kg
- Protected/Tested [40]: 3
- scMet [41]: No activity or no toxicity at 300 mg/kg
- Ratio [42]: 29
- MES [43]: active at 30 mg/kg
- No. of animals exhibiting toxicity / Number of animals tested [44]: 0
- Protected/Tested [45]: 0
- PI [46]: 26.9
- ED50 [29]: 7.6 mg/kg
- Protected/Tested [47]: 1
- ED50 [30]: > 75 mg/kg
- Rotarod toxicity [48]: active at 300 mg/kg
- Protected/Tested [49]: 3
- No. of animals exhibiting toxicity / Number of animals tested [50]: 0
- scMet [51]: No activity or no toxicity at 300 mg/kg
